Assay results as given in patent US20110287547A1, “NUCLEIC ACID DELIVERY COMPOSITIONS AND METHODS” (priority 2008, published 2011).
Converted amounts (≈) assume the structure as drawn. Where two headings read alike, the source gives them in different places. Where a SMILES comes first, the peptide text is derived from it.

Assays:
[1] = Assessment of cytotoxicity (MTS Assay), Example 4; format: cell-based, human; conditions: human, A549-luc-C8 cells, up to 5 mg/mL
Description: (§1) Cell culture. Culturing of human epithelial lung cell line A549-luc-C8, stably expressing luciferase, was performed according to the protocol provided by Caliper LifeSciences. A549-luc-C8 cells were grown in RPMI-1640 supplemented with 10% v/v heat inactivated FBS and 1% v/v Penicillin/streptomycin at 37° C. in a humidified air atmosphere containing 5% CO2.
(§2) Assessment of cytotoxicity (MTS Assay). […] A549-luc-C8 cells were grown as described in the transfection experiments. Cells were treated with the TAT, dTAT or PEI for approximately 24 hours. […] The cells were incubated for 3 hours at 37° C. in the 5% CO2 incubator. The absorbance of each well was then measured at 490 nm using a microtiter plate reader (SpectraMax, M25, Molecular Devices Corp., CA) to determine cell viability.

Balb/C mice = conditions: 200 μL tail vein, Balb/C mouse
Description: Assessment of toxicity in vivo. Stock solutions of 0.3 M CaCl2, 10% Glucose, and 174 mg/ml dTAT were prepared. Non-silencing control siRNA (Dharmacon; Sense: […]tt; SEQ ID NO 16, Antisense: […]tt; SEQ ID NO 17) was dissolved in nuclease-free water (61.5 nM). The dTAT/siRNA complexes were prepared in 1.5 ml microcentrifuge tubes by mixing stock solutions (at concentrations indicated above). Formulation 1 used 15 μL of dTAT, 10 μL siRNA, 25 μL Glucose, and 5 μl CaCl2. Each ingredient was added to the previous component(s) and mixed by pipetting between each addition. Four of these formulas were individually prepared and kept at 4° C. for 20 minutes, then kept at room temperature for 5 minutes prior to injection. Remaining formulations (2-10) were prepared by a serial 1:2 dilution of stock siRNA solution and stock dTAT solution following the same experimental protocol as described above. The dTAT/siRNA complexes (volume=260 μl) were prepared for each individual animal and each 0.2 mL injection volume contained approximately the following amounts of dTAT peptide (mg/ml): 40, 20, 10, 5, 2.5, 1.25, 0.64, 0.32, 0.16, 0. Each formulation was administered via 200 μL injection into the tail vein of 12 week old male Balb/C mice (10 animals total).
In vivo dose escalating toxicity study. […] A dose escalating study was conducted in an effort to establish a lethal dose (LD50) for the dTAT peptide. For these studies, only a minimal amount of siRNA was included so that animal responses would be indicative of the toxicity of dTAT. Animals were administered the formulations via tail vein injection (200 μL) at doses up to 1,000 mg/kg of dTAT (Table 5).

A549 cells [2] = assay: In vitro cell transfection (pGL3 luciferase gene expression), Example 1 method; format: cell-based, human; conditions: 1 day after transfection, 75, 150, 300 mM CaCl2, varying N/P ratios
Description: Particles of nano-sized TAT-Ca complexes were synthesized by rapidly adding and stirring 10 μL of either (0.1 μg/μL) pDNA or (30-50 nM) siRNA to 15 μL (1 μg/μL) of the TAT solution. To this solution, 15 μL of CaCl2 of known molarity (e.g. 0.3 M) was added and mixed by vigorous pipetting followed by 20-30 minutes incubation at room temperature or at 4° C. prior to use.
Preparation of PEI/pDNA Complexes. Polyethylenimine-DNA Complexes were prepared by adding 10 μl (0.1 μg/μL) of pDNA solution to 15 μL (N/P ratio of 5 or 10) polyethylenimine (PEI) solution drop-wise while stirring. Complexes were incubated at room temperature for 20-30 minutes before dilution 1.7 times (15 μL) with the appropriate buffer (e.g. nuclease-free water or CaCl2). Complexes were freshly prepared before each individual experiment.
In Vitro Cell Transfection Studies. A549 cells were trypsinized, counted and diluted to a concentration of approximately 80,000 cells/mL. Then 0.1 mL of that dilution was added to each well of a 96-well plate and the cells were incubated in a humidified atmosphere of 5% CO2 incubator at 37° C. for 24 hours. Immediately before transfection, the cells were washed once with PBS and 100 μl sample (20% of complex to 80% of serum free cell culture medium) was added to each well. Cells were incubated with the complexes for 5 hours. The transfection agent was then removed by aspiration and 100 μL of fresh serum medium was added followed by further incubation. The Luciferase Assay System from Promega was used to determine gene expression following the manufacturer's recommended protocol. The light units were normalized against protein concentration in the cells extracts, which were measured using the Coomassie Plus™ Protein Assay (Thermo Scientific). The transfection results were expressed as Relative Light Units (RLU) per mg of cellular protein.

[3] = Cytotoxicity Assay (MTS Assay), Example 1 and CPPs; format: cell-based, human; conditions: human
Description: (§3) Cell Culture. Culturing of human epithelial lung cell line A549 was performed according to the protocol provided by the American Type Culture Collection. A549 was grown in F-12K supplemented with 10% v/v FBS and 1% v/v Penicillin/streptomycin at 37° C. in a humidified air atmosphere containing 5% CO2.
as §2, with “Cytotoxicity Assay” for “Assessment of cytotoxicity”, “A549” for “A549-luc-C8”, “samples” for “TAT, dTAT or PEI”

A549-luc-C8 cells = assay: Assessment of cytotoxicity (MTS Assay), Example 4; format: cell-based, human; conditions: 24 hours, up to 5 mg/mL
Description: as §1, §2

A549 cells [4] = assay: Cytotoxicity Assay (MTS Assay), Example 1 and CPPs; format: cell-based, human; conditions: A549 cells, MTS
Description: as §3
as §2, with “Cytotoxicity Assay” for “Assessment of cytotoxicity”, “A549” for “A549-luc-C8”, “samples” for “TAT, dTAT or PEI”

A549 cells [5] = test system: A549 cells
Description: (§4) Cytoxicity Assay. Cytotoxicity of the complexes was determined by the CellTiter 96® Aqueous Cell Proliferation Assay kit (MTS assay) from Promega. A549 cells were plated on 96-well plates with approximately 8,000 cells/well and incubated in a humid 5% CO2 incubator at 37° C. After 18-24 hours incubation, the medium was removed and the cells were washed with 100 μl serum free medium. Cells were treated with the samples for 12-24 hours. The serum free medium were then removed and replaced with a mixture of 100 μl fresh culture medium and 20 μl MTS reagent solution. The cells were incubated for 1-4 hours at 37° C. in 5% CO2 incubator. Cell viability was assessed by measuring the absorbance at 490 nm by plate reader (SpectraMax M5) and expressed as the ratio of the A490 of cells treated with inhibitors over the control samples.

A549 cells [6] = assay: Cytotoxicity assay (MTS), Example 2; conditions: 46.9 mM CaCl2 only or in the complex
Description: as §4

In the case of `N=C(N)NCCC[C@H](NC(=O)[C@H](CCCCN)NC(=O)[C@H](CCCCN)NC(=O)[C@H](CCCNC(=N)N)NC(=O)[C@H](CCCNC(=N)N)NC(=O)[C@H](Cc1c[nH]cn1)NC(=O)[C@H](CCCNC(=N)N)NC(=O)[C@H](CCCNC(=N)N)NC(=O)[C@H](CCCNC(=N)N)NC(=O)[C@H](CCC(N)=O)NC(=O)[C@H](CCCNC(=N)N)NC(=O)[C@H](CCCNC(=N)N)NC(=O)[C@H](CCCCN)NC(=O)[C@H](CCCCN)NC(=O)[C@@H](N)CCCNC(=N)N)C(=O)O` [dTAT] (H-RKKRRQRRRHRRKKR-OH), the IC50 at 24 h [1] is reported as ~4000 µg/mL (≈ 1820 µM), the “Toxicity/Behavioral Effects” value (Balb/C mice; dTAT 0.16 mg/mL, total dose 3.90 mg/Kg, siRNA 0.03 nM) is reported as “Normal” and the “Toxicity/Behavioral Effects” value (Balb/C mice; dTAT 0.32 mg/mL, total dose 7.81 mg/Kg, siRNA 0.07 nM) is reported as “Normal”. For the same compound, the “Toxicity/Behavioral Effects” value (Balb/C mice; dTAT 0.64 mg/mL, total dose 15.63 mg/Kg, siRNA 0.14 nM) was “Normal”, the “Toxicity/Behavioral Effects” value (Balb/C mice; dTAT 1.25 mg/mL, total dose 31.25 mg/Kg, siRNA 0.29 nM) was “Normal” and the “Toxicity/Behavioral Effects” value (Balb/C mice; dTAT 2.5 mg/mL, total dose 62.5 mg/Kg, siRNA 0.59 nM) was “Normal”. The “Toxicity/Behavioral Effects” value (Balb/C mice; dTAT 5 mg/mL, total dose 125 mg/Kg, siRNA 1.18 nM) was “Normal”, the “Toxicity/Behavioral Effects” value (Balb/C mice; dTAT 10 mg/mL, total dose 250 mg/Kg, siRNA 2.36 nM) was “Normal” and the “Toxicity/Behavioral Effects” value (Balb/C mice; dTAT 20 mg/mL, total dose 500 mg/Kg, siRNA 4.73 nM) was “Normal”.
For H-RKKRRQHRRR-NH2 [TAT3], the “added CaCl2 concentration at which complexes showed a higher level of gene expression” value (shortened to “added CaCl2 concentration”) (A549 cells [2]) was 150 mM.
For `CSCC[C@H](NC(=O)[C@H](CCCCN)NC(=O)[C@H](Cc1c[nH]c2ccccc12)NC(=O)[C@H](CCCCN)NC(=O)[C@@H](N)CCCCN)C(=O)N[C@@H](CCCNC(=N)N)C(=O)N[C@@H](CCCNC(=N)N)C(=O)N[C@@H](CC(N)=O)C(=O)N[C@@H](CCC(N)=O)C(=O)N[C@@H](Cc1ccccc1)C(=O)N[C@@H](Cc1c[nH]c2ccccc12)C(=O)N[C@H](C(=O)N[C@@H](CCCCN)C(=O)N[C@H](C(=O)N[C@@H](CCC(N)=O)C(=O)N[C@@H](CCCNC(=N)N)C(=O)NCC(=O)O)C(C)C)C(C)C` [Alp] (H-KKWKMRRNQFWVKVQRG-OH), the IC50 at 24 h [3] was ~2140 µg/mL (≈ 942 µM).
With H-RRKRRQHRRR-NH2 [TAT4] the “added CaCl2 concentration” value (A549 cells [2]) was 150 mM.
For `N=C(N)NCCC[C@H](NC(=O)[C@H](CCCNC(=N)N)NC(=O)[C@H](CCCNC(=N)N)NC(=O)[C@H](CCC(N)=O)NC(=O)[C@H](CCCNC(=N)N)NC(=O)[C@H](CCCNC(=N)N)NC(=O)[C@H](CCCCN)NC(=O)[C@H](CCCCN)NC(=O)[C@@H](N)CCCNC(=N)N)C(N)=O` [TAT], the cytotoxicity (A549-luc-C8 cells) was “almost no evidence of cytotoxicity” and the cytotoxic effects (A549 cells [4]) was “no evidence of cytotoxic effects”.
For H-RKKRRHRRR-NH2 [TAT2], the “added CaCl2 concentration” value (A549 cells [2]) was 150 mM.
For protamine, the “IC50 (cytotoxicity)” value (A549 cells [5]) was 890 µg/mL.
In the case of H-RKKRRQRRRHRRKKR-NH2 [TAT5], the “added CaCl2 concentration” value (A549 cells [2]) is reported as 300 mM.
In the case of `[Ca+2].[Cl-].[Cl-]` [CaCl2, Calcium chloride], the cytotoxicity (A549 cells [6]) is reported as “did not show cytotoxicity”.
